The subject of assay [1] is P. falciparum Dd2^I218F. Also on record: key to Phenotype, Dd2^I218F: S: sensitive; R: resistant. Particulars: cited from earlier work.
Assay [2] deals with P. falciparum NF10^YF. The arrangement: method as in ref 1 Veiga et al. 2016. Particulars: means ± SEM, N 6; ref 1 Veiga et al. 2016; read-out: IC50 NF10YF; cited from earlier work.
Assay [3] concerns P. falciparum Dd2^H97Y. Also on record: key: S: sensitive; R: resistant. Particulars: ref [19],[20],[51]; cited from earlier work.
Assay [4] deals with P. falciparum 7G8^F145I. Also on record: key to Phenotype, 7G8^F145I: S: sensitive; R: resistant. Particulars: cited from earlier work.
The test system of assay [5] is P. falciparum 3D7 ABS parasites. Briefly: ABS parasite survival assay, 72 h, flow cytometry. It is filed as cell-based. The settings on record: Plasmodium falciparum. Here is the method: (§1) P. falciparum ABS parasites were cultured at 3% hematocrit in human O^+ RBCs in RPMI-1640 media supplemented with 25 mM HEPES, 50 mg/L hypoxanthine, 2 mM L-glutamine, 0.21% sodium bicarbonate, 0.5% (w/v) AlbuMAXII (Invitrogen) and 10 μg/mL gentamycin. Culture flasks were kept in modular incubator chambers (Billups-Rothenberg) in a 5% O2, 5% CO2, and 90% N2 atmosphere at 37°C. Synchronized ring-stage parasites were obtained by two consecutive rounds of treatment with 5% D-sorbitol in 48-hour intervals. […] This was done by exposing cultures at 1% hematocrit and 0.3% parasitemia in 96-well plates in the presence of drugs in a two-fold 10 or 12-point serial dilution in duplicate along with drug-free controls. After a 72-hour incubation, parasite survival was assessed by flow cytometry on an iQue flow cytometer (Sartorius) using SYBR Green and MitoTracker Deep Red FM (Life Technologies) as nuclear stain and vital dye, respectively. Parasite survival was determined as a percentage relative to drug-free control. IC50 values were interpolated from log concentration versus response curves in Prism 9 (GraphPad Prism Software Inc.).
(In general: In flow cytometry, cells or beads pass a laser one at a time.)

In assay [6] the test system is P. falciparum Dd2 ABS parasites. The assay can be described thus: ABS parasite survival assay, 72 h, flow cytometry. It counts as cell-based. The settings on record: Plasmodium falciparum. On the procedure: as §1
Assay [7] deals with PfCRT variants (7G8, 7G8^F145I, 7G8^C350R). The assay can be described thus: SSM-based electrophysiology (SURFE2R N1) of PfCRT proteoliposomes. It counts as biochemical, Plasmodium falciparum. The settings on record: 10 μM, distinct PfCRT isoforms. On the procedure:
Solid Supported Membrane (SSM)-based electrophysiological measurements were performed using SURFE^2R N1 technology (Nanion Technologies, Inc.) according to published protocols. Briefly, sensors were coated with 1-octadecanethiol (Sigma-Aldrich), rinsed, and 1,2-diphytanoyl-sn-glycero-3-phosphocholine (Avanti Polar Lipids, Inc) was added. Immediately, the sensor was filled with 50 μL non-activating buffer (10 mM Tris-MES, pH 5.5) and PfCRT-containing proteoliposomes (PLs). To generate a K^+ diffusion potential-driven ΔΨ, valinomycin was included at a final concentration of 80 nM [34, 35]. The activating solution (10 mM Tris-MES, pH 5.5 containing either 10 μM CQ, PPQ, LDT-623, pyrimethamine, or atovaquone) was applied using a single-solution exchange protocol (activating buffer incubation for 1 second). Each measurement was repeated at least twice employing at least three different sensors. Peak currents for PfCRT were corrected by subtracting the peak currents recorded with control liposomes (lacking this transporter). To acquire the PfCRT-elicited charge (Coulomb) movement associated with drug transport, the area under the curve (current as a function of time) was analyzed with GraphPad Prism version 10.

Assay [8] has as its system P. falciparum NF54-Pfs16-GFP-Luc stage IV-V gametocytes. Briefly: Mature gametocyte (stages IV-V) viability, luciferase, 48 h. It counts as cell-based, Plasmodium falciparum. The settings on record: 5 μM. Here is the method:
P. falciparum NF54-Pfs16-GFP-Luc (MRA-1217), a highly gametocyte-producing strain, was cultured following standard procedures. NF54-Luc ABS parasites were sorbitol-synchronized as previously described and cultured to reach 8–10% parasitemia as mature trophozoites prior to starting gametogenesis induction via nutrient deficit stress. Briefly, stress was induced by replacing only 40% of the culture medium and returning cultures to a 37°C incubation. Cultures were treated with 50 mM N-acetylglucosamine for 10 days to remove ABS parasites. Mature gametocytes (stages IV-V) were isolated using magnetic columns and incubated at 2% gametocytemia and 1.5% hematocrit in 96-well plates containing the test compounds for 48 hours at 37°C, following standard P. falciparum culturing conditions. Methylene blue was used as a gametocytocidal control alongside drug-free wells. Luciferase activity was assessed by adding 40 μL of luciferin substrate (Promega) to 40 μL of parasite lysates and detecting bioluminescence at an integration constant of 10s with the BioTek Cytation 5 Cell Imaging Multimode Reader.

Assay [9] has as its system P. falciparum Dd2-Polδ Flask 2. The assay can be described thus: ABS susceptibility after resistance selection, recrudescent line. Particulars: for % Parasite survival: Dd2 Pol D Flask 2, rep 1-5. It counts as cell-based, Plasmodium falciparum. Here is the method:
as §1
(§2) Resistance to LDT-623 was assessed using single-step in vitro resistance selection protocols. […] Dd2-Pol δ is a hypermutable line with two point mutations in DNA polymerase δ that compromise its proofreading activity Cultures were monitored daily by thin blood smears until live parasites were no longer detectable. Drug-containing media was changed daily until parasites cleared, and every other day thereafter. Cultures were passaged once weekly by reducing the volume by 25% and replacing 1/3 of RBCs. Recrudescence monitoring was carried out twice a week by thin blood smears for 60 days. In the event of recrudescence, parasite susceptibility to LDT-623 was tested as described above.

Assay [10] has as its system P. falciparum Dd2-Polδ Flask 1. The assay is described as above. It counts as cell-based, Plasmodium falciparum. Particulars: for % Parasite survival: Dd2 Pol D Flask 1, rep 1-5. On the procedure: as §1, §2
The mark [11] stands for this setting: Dd2I218F, mean ± SEM, ref 2 (Dhingra et al., 2019).

Where “and” joins values, the source holds several entries; their conditions need not be identical. Identical values can stand only once. Like-named read-outs stand apart in the source and are kept apart here.

The values below come from PMC11521309, “A novel 4-aminoquinoline chemotype with multistage antimalarial activity and lack of cross-resistance with PfCRT and PfMDR1 mutants” (PLOS Pathogens, 2024).

One may read the IC50 as the midpoint of a concentration-inhibition curve. For orientation: IC90 means the point of the concentration-response curve where the effect stands at 90%.

For `CCN(CC)CCCC(C)Nc1ccnc2cc(Cl)ccc12` (stereo not drawn) [CQ, chloroquine], the half-inhibitory concentration (IC50) in [1] (setting [11]) was 36.7 ± 4.3 nM; in assay [2], 347 ± 24.4 nM; in [4] (7G8F145I, mean ± SEM, ref 3 (Kim et al., 2019)), 7.3 ± 0.4 nM. Besides, the 90% effect concentration (IC90) in assay [1] (setting [11]) was 85.3 ± 4.9 nM. Also, the “Phenotype, Dd2^I218F” value in assay [1] (ref [19],[20],[51]) is reported as “S”. In addition, the “Phenotype, Dd2^H97Y” value in [3] is recorded as “R”. Besides, the “Phenotype, 7G8^F145I” value in assay [4] (ref [19],[20],[51]) was “S”.

With `COc1cc2nccc(Nc3cccc(Oc4ccccc4)c3)c2cc1OC` [LDT-623], the 50% inhibitory concentration (IC50) in assay [5] (3D7, ABS parasites, N = 3, read-out: IC50 3D7) is 130 ± 10 nM; in assay [5] (3D7, CQ-sensitive strain, read-out: IC50 3D7) it was 127 nM; in [5] (3D7, read-out: IC50 3D7) it was 126.6 ± 0.1 nM; in assay [6] (DD2, ABS parasites, N = 3, read-out: IC50 Dd2), 300 ± 30 nM; in assay [6] (DD2, CQ-resistant strain, read-out: IC50 Dd2) it was 365 nM; in [6] (DD2, read-out: IC50 Dd2) it was 365 ± 17.5 nM. In [7], the “PfCRT-specific currents” value was “elicits the same magnitude of currents as CQ and PPQ”. Moreover, the “% Inhibition of viability, mature gametocytes” value in assay [8] (mean, N = 3) was 62% and 61.67%; in assay [8] (single replicates), 78.00% and 67.00% and 40.00%. In addition, the “% Parasite survival” value is 88.00% and 80.84% and 100.00% and 86.03% in [9] (0.09 uM); 82.04% and 70.05% and 89.31% and 86.03% and 100.00% in assay [9] (0.19 uM); 0.00% and 7.11% and 0.21% in [9] (0.78 uM); 1.80% and 2.03% and 1.07% and 0.00% in [9] (1.56 uM); 7.60% and 5.20% and 3.53% and 0.39% and 7.52% in [9] (3.12 uM); 0.00% and 7.74% and 3.09% in assay [9] (25 uM). The “% Parasite survival” value is 0.00% and 5.80% in assay [9] (50 uM); 100.00% and 83.53% and 90.04% and 99.83% in assay [10] (0.09 uM); 92.44% and 73.57% and 80.08% and 80.97% and 100.00% in assay [10] (0.19 uM); 0.00% in [10] (0.78 uM); 0.00% and 1.04% in assay [10] (1.56 uM); 0.00% and 0.35% in assay [10] (50 uM). Besides, the “mean AUC of survival curve” value is recorded as 22.3 in assay [9] (recrudescent parasites, Flask 2) and 53.8 in [10] (recrudescent parasites, Flask 1).
